Results on four molecules are retold here after US10800754B2, “Heterocyclic amide compound” (TAKEDA PHARMACEUTICAL COMPANY LIMITED, priority 2016, dated 2020).

Molecules are shown by their SMILES.

The target of assay [1] is T1, human PRS protein (Homo sapiens, UniProt P07814).
T1 construct: to construct His-Avi-hEPRS (998-1512) expression plasmid; His tag (N); Avi tag (N); TEV cleavage site (ENLYFQ/GS, encoded by forward primer hEPRS-TEV-NheF) (N); made in house; host or cells: E. coli BL21(DE3)
T1 sequence (P07814 998-1512): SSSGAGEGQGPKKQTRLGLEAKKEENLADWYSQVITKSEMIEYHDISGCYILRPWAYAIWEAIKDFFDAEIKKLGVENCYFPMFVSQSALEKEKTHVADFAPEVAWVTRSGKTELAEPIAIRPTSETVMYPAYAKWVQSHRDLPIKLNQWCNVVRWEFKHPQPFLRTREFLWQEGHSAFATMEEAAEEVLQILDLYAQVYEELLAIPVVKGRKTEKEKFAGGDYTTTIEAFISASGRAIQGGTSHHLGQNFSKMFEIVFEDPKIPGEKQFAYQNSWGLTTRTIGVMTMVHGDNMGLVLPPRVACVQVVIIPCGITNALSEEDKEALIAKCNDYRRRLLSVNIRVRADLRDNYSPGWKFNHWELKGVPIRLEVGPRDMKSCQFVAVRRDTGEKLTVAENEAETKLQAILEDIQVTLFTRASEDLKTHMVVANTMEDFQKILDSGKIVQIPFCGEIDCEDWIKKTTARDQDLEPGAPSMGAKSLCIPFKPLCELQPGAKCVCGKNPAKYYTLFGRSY
Description: PRS inhibitory activity (ATP/[32P]pyrophosphate exchange enzyme reaction). As to conditions: 300 nM test compound; recombinant human PRS (EPRS 998-1512); read-out: inhibitory rate (%) of PRS. In kind it is biochemical. In outline: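 His-Avi-tagged human EPRS catalytic domain (998-1512), E. coli-expressed, was preincubated 60 min with compound (enzyme added as 40 nM solution) in Tris pH 7.5, KCl, DTT, Tween 20 and MgCl2. The substrate solution contained 300 μM ATP, 160 μM L-proline, and 400 μM pyrophosphate with [32P]pyrophosphate; reaction ran 30 min at room temperature. Charcoal-captured label was counted, with enzyme-free wells taken as 100% inhibition.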

Assay [2] concerns human ovarian cancer cell A2780. Kind of assay: proliferation inhibitory activity against A2780 cells (CellTiter-Glo). In kind it is cell-based. As to conditions: A2780, 72 h, 1 μM test compound, 3 days of culture, read-out: proliferation inhibitory rate (%) of A2780 cells. Background: In ATP-based viability assays light output follows the ATP content of the culture.

As for `CC(C)(O)Cn1cc(-c2cccc(CC(=O)Nc3cc(N4CC[C@@](C#N)(C5CC5)C4=O)ccn3)c2)cn1` [Example 101, N-(4-((3S)-3-cyano-3-cyclopropyl-2-oxopyrrolidin-1-yl)pyridin-2-yl)-2-(3-(1-(2-hydroxy-2-methylpropyl)-1H-pyrazol-4-yl)phenyl)acetamide], the inhibition at 0.3 µM in assay [1] was 99%. In assay [2], the inhibition at 1 µM came to 69%.

As to `Cc1cc(N2CC[C@@](C#N)(C3CC3)C2=O)cc(NC(=O)Cc2cccc(-c3cn(C)nc3C)c2)n1` [Example 102, N-(4-((3S)-3-cyano-3-cyclopropyl-2-oxopyrrolidin-1-yl)-6-methylpyridin-2-yl)-2-(3-(1,3-dimethyl-1H-pyrazol-4-yl)phenyl)acetamide], the inhibition at 0.3 µM in assay [1] amounted to 100%. Besides, in assay [2], the inhibition at 1 µM turned out to be 89%.

`Cc1cc(-c2cccc(CC(=O)Nc3cc(N4CC[C@@](C#N)(C5CC5)C4=O)cc(C)n3)c2)cnn1` [Example 103, N-(4-((3S)-3-cyano-3-cyclopropyl-2-oxopyrrolidin-1-yl)-6-methylpyridin-2-yl)-2-(3-(6-methylpyridazin-4-yl)phenyl)acetamide]: the inhibition at 0.3 µM in assay [1] amounted to 97%. For the same molecule, the inhibition at 1 µM in assay [2] worked out at 67%.

For `Cc1cc(N2CC[C@@](C#N)(C3CC3)C2=O)nc(NC(=O)Cc2cccc(-c3cnn(C)c3)c2)n1` [Example 132, N-(4-((3S)-3-cyano-3-cyclopropyl-2-oxopyrrolidin-1-yl)-6-methylpyrimidin-2-yl)-2-(3-(1-methyl-1H-pyrazol-4-yl)phenyl)acetamide], the inhibition at 0.3 µM in assay [1] was 98%. In assay [2], the inhibition at 1 µM turned out to be 73%.
